Patent US20220264878A1, “HERBICIDAL COMPOSITION CONTAINING R-TYPE PYRIDYLOXY CARBOXYLIC ACID DERIVATIVE AND USE THEREOF” (Qingdao Kingagroot Chemical Compound Co., Ltd., priority 2019, published 2022)

Columns and labels:
Format in all cases: in vivo
[1] = tested on: Conyza Canadensis; assay: Post-emergence foliage spray on Conyza Canadensis with a height of 10 cm, fresh weight inhibition (Tables 207-216; 24 days); conditions: 24 days after treatment
Description: (§1) The above weeds were cultivated by a pot culture method. […] Full and uniform weed seeds were selected, soaked in warm water at 25° C. for 6 hours, and germinated in a 28° C. biochemical incubator (darkness). The weed seeds that had just germinatedwere evenly placed on the surface of the soil and then covered with 0.5-1 cm soil according to the sizes of seeds.
(§2) The technical materials were all dissolved in acetone, and diluted with an aqueous solution containing 0.1% emulsifier Tween-80. The dilution is performed as required.
(§3) A ratio of the active ingredient A to the active ingredient B and amounts thereof in each group depends on the characteristics and toxicity of the two agents, as well as the main application purpose of a corresponding formulation. Based on the pre-tests in this study, the dosage of the active ingredient A and B applied alone and in combination were shown in the tables. Water containing the solvent and emulsifier same with the above groups but free of the agents was used as a blank control.
In the stage of weeds with 6˜8 leaves, the weeds were thinned out to maintain 3 weeds per pot and 30 weeds for each treatment, then continued to be cultured to Conyza Canadensis with a height of 10 cm, and treated.
(§4) The well-cultured weeds were evenly placed on a platform with an area of 0.5 m^2, and a solution of agents was sprayed on the stems and leaves thereof by the 3WP-2000-type walking spray tower at a dosage of 450 kg/ha and at a spray pressure of 0.3 MPa. After all the solution was sprayed, the valve was closed. After 30 seconds, the door of the spray tower was opened, and the nutritional bowl was taken out. Then the valve was opened, and the spray tube was cleaned by spraying 50 ml of water.
(§5) A pot-culture method was employed. For the cultivation of weeds, please refer to the Section 1.1), and “Pesticide guidelines for laboratory bioactivity tests—herbicides”. As to a method for applying agents, please refer to the section 2.3.2), that is, a foliage treatment was employed. After the treatment, the weeds were routinely cultured in a greenhouse.
(§6) A method for investigating absolute number was employed, wherein whole seedlings of survival weeds were cut off with a blade along the soil surface, and the fresh weight of the weeds was weighed with an analytical balance. For dead weeds, the fresh weight thereof was zero.
Wherein, in the formula, X represented the fresh weight inhibition rate of the active ingredient A in a dosage of P, and Y represented the fresh weight inhibition rate of the active ingredient B in a dosage of Q.

[2] = tested on: Alopecurus japonicus; assay: Post-emergence foliage spray, pot culture, fresh weight inhibition (Tables 1-48, 51-98, 101-148; 24 days)
Text: (§7) Table 1-48, 51-98, 101-148: Echinochloa crusgalli var. zelayensis, Eclipta prostrate, Galium aparine L., Alopecurus aequalis, Alopecurus japonicus, Lindernia procumbens, Veronica persica^1, Malachium aquaticum, Beckmannia syzigachne, Stellaria media were collected in Huai'an of Jiangsu Province; Commelina communis, Sonchus arvensis, Setaria glauca, Chloris virgata, Setaria faberi, Sonchus oleraceus L., Echinochloa oryzoides, Cirsium setosum, Xanthium strumarium were collected in Qiqiha'er of Heilongjiang Province; Sinapis arvensis, Veronica persica^2 were collected in Zhumadian of Henan Province; Ludwigia prostrate, Ammannia arenaria were collected in Zhuji of Zhejiang Province; Amaranthus retrojlexus, Descurainia sophia, Digitaria sanguinalis, Setaria viridis, Conyza Canadensis, Capsella bursa-pastoris, Eleusine indica, Ipomoea purpurea, Abutilon theophrasti, Chenopodium album, Acalypha australis, Solanum nigrum were collected in Qingdao of Shandong Province; Echinochloa caudate were collected in Pingluo of Ningxia Province.
as §1
(§8) The culture was carried out in a controllable sunlight greenhouse at 20 to 30° C., in natural light, and relative humidity of 57% to 72%.
as §2, §3
(§9) Table 1-48, 51-98, 101-148, 151-206: […] per treatment, that is, a total of 60 weeds were treated in one treatment.
(§10) Table 1-48, 51-98, 101-148: The agents were used for only once in the experiment. In the stage of weeds with 3˜4 leaves, the weeds were thinned out to maintain 15 weeds per pot and 45 weeds for each treatment, then continued to be cultured to 5˜6 leaves stage of grassy weeds, 6˜7 leaves stage of broadleaf weeds, and treated.
as §4, §5, §6
(§11) Table 1-48, 51-98, 101-148, 207-216: The investigation was performed after 24 days of the treatment for only once.

[3] = tested on: Beckmannia syzigachne; assay: as above
Text: as §7, §1, §8, §2, §3, §9, §10, §4, §5, §6, §11

Cc1cc(Cl)ccc1OCC(=O)O [MCPA]
Control effect (%) of B applied alone in corresponding dose ([1]; B alone 75 g a.i./ha): 18.8%

Nc1cc(Cl)nc(C(=O)O)c1Cl [aminopyralid]
Control effect (%) of B applied alone in corresponding dose ([1]; B alone 15 g a.i./ha): 19.0%
Control effect (%) of B applied alone in corresponding dose ([1]; B alone 30 g a.i./ha): 40.7%

Cc1ccc(NC(=O)N(C)C)cc1Cl [chlorotoluron]
Control effect (%) of B applied alone in corresponding dose ([2]; chlorotoluron 75 g a.i./ha): 2.9%
Control effect (%) of B applied alone in corresponding dose ([2]; chlorotoluron 150 g a.i./ha): 13.1%
Control effect (%) of B applied alone in corresponding dose ([2]; chlorotoluron 300 g a.i./ha): 39.8%
Control effect (%) of B applied alone in corresponding dose ([2]; chlorotoluron 600 g a.i./ha): 71.9%
Control effect (%) of B applied alone in corresponding dose ([3]; B 75 g a.i./ha): 5.5%
Control effect (%) of B applied alone in corresponding dose ([3]; B 150 g a.i./ha): 16.8%
Control effect (%) of B applied alone in corresponding dose ([3]; B 300 g a.i./ha): 41.1%
Control effect (%) of B applied alone in corresponding dose ([3]; B 600 g a.i./ha): 72.1%

C#CCOC(=O)[C@@H](C)Oc1ccc(Oc2ncc(Cl)cc2F)cc1 [clodinafop-propargyl]
Control effect (%) of B applied alone in corresponding dose ([2]; clodinafop-propargyl 3.75 g a.i./ha): 3.0%
Control effect (%) of B applied alone in corresponding dose ([2]; clodinafop-propargyl 7.5 g a.i./ha): 10.6%
Control effect (%) of B applied alone in corresponding dose ([2]; clodinafop-propargyl 15 g a.i./ha): 57.8%
Control effect (%) of B applied alone in corresponding dose ([2]; clodinafop-propargyl 30 g a.i./ha): 79.9%
Control effect (%) of B applied alone in corresponding dose ([3]; B 3.75 g a.i./ha): 10.3%
Control effect (%) of B applied alone in corresponding dose ([3]; B 7.5 g a.i./ha): 20.1%
Control effect (%) of B applied alone in corresponding dose ([3]; B 15 g a.i./ha): 59.6%
Control effect (%) of B applied alone in corresponding dose ([3]; B 30 g a.i./ha): 81.2%

O=C(O)c1nc(Cl)ccc1Cl [clopyralid]
Control effect (%) of B applied alone in corresponding dose ([1]; B alone 15 g a.i./ha): 6.1%
Control effect (%) of B applied alone in corresponding dose ([1]; B alone 30 g a.i./ha): 29.8%
Control effect (%) of B applied alone in corresponding dose ([1]; B alone 60 g a.i./ha): 53.5%
Control effect (%) of B applied alone in corresponding dose ([1]; B alone 120 g a.i./ha): 82.8%

Cn1[nH]c(C2CC2)c(C(=O)c2ccc(C(F)(F)F)c(N3CCCCC3=O)c2Cl)c1=O [cypyrafluone]
Control effect (%) of B applied alone in corresponding dose ([2]; cypyrafluone 18.75 g a.i./ha): 4.0%
Control effect (%) of B applied alone in corresponding dose ([2]; cypyrafluone 37.5 g a.i./ha): 24.9%
Control effect (%) of B applied alone in corresponding dose ([2]; cypyrafluone 75 g a.i./ha): 54.8%
Control effect (%) of B applied alone in corresponding dose ([2]; cypyrafluone 150 g a.i./ha): 81.3%
Control effect (%) of B applied alone in corresponding dose ([3]; B 18.75 g a.i./ha): 9.0%
Control effect (%) of B applied alone in corresponding dose ([3]; B 37.5 g a.i./ha): 14.2%
Control effect (%) of B applied alone in corresponding dose ([3]; B 75 g a.i./ha): 56.3%
Control effect (%) of B applied alone in corresponding dose ([3]; B 150 g a.i./ha): 81.8%

COc1c(Cl)ccc(Cl)c1C(=O)O [dicamba]
Control effect (%) of B applied alone in corresponding dose ([1]; B alone 150 g a.i./ha): 58.7%

COc1c(Cl)ccc(-c2nc(C(=O)OCc3ccccc3)c(Cl)c(N)c2F)c1F [florpyrauxifen benzyl]
Control effect (%) of B applied alone in corresponding dose ([1]; B alone 1.875 g a.i./ha): 3.5%
Control effect (%) of B applied alone in corresponding dose ([1]; B alone 7.5 g a.i./ha): 47.4%

Nc1c(Cl)c(F)nc(OCC(=O)O)c1Cl [fluroxypyr]
Control effect (%) of B applied alone in corresponding dose ([1]; B alone 37.5 g a.i./ha): 5.8%

COC(=O)c1nc(-c2ccc(Cl)c(OC)c2F)cc(N)c1Cl [halauxifen-methyl]
Control effect (%) of B applied alone in corresponding dose ([1]; B alone 3.75 g a.i./ha): 20.5%
Control effect (%) of B applied alone in corresponding dose ([1]; B alone 15 g a.i./ha): 81.5%

CC(C)c1ccc(NC(=O)N(C)C)cc1 [isoproturon]
Control effect (%) of B applied alone in corresponding dose ([2]; isoproturon 75 g a.i./ha): 2.5%
Control effect (%) of B applied alone in corresponding dose ([2]; isoproturon 150 g a.i./ha): 11.4%
Control effect (%) of B applied alone in corresponding dose ([2]; isoproturon 300 g a.i./ha): 56.5%
Control effect (%) of B applied alone in corresponding dose ([2]; isoproturon 600 g a.i./ha): 75.9%
Control effect (%) of B applied alone in corresponding dose ([3]; B 75 g a.i./ha): 7.0%
Control effect (%) of B applied alone in corresponding dose ([3]; B 150 g a.i./ha): 15.9%
Control effect (%) of B applied alone in corresponding dose ([3]; B 300 g a.i./ha): 57.6%
Control effect (%) of B applied alone in corresponding dose ([3]; B 600 g a.i./ha): 76.6%

Nc1c(Cl)c(Cl)nc(C(=O)O)c1Cl [picloram]
Control effect (%) of B applied alone in corresponding dose ([1]; B alone 7.5 g a.i./ha): 5.0%
Control effect (%) of B applied alone in corresponding dose ([1]; B alone 60 g a.i./ha): 69.4%

CCc1cc(C)cc(CC)c1-c1c(OC(=O)C(C)(C)C)n2n(c1=O)CCOCC2 [pinoxaden]
Control effect (%) of B applied alone in corresponding dose ([2]; pinoxaden 3.75 g a.i./ha): 2.5%
Control effect (%) of B applied alone in corresponding dose ([2]; pinoxaden 7.5 g a.i./ha): 12.1%
Control effect (%) of B applied alone in corresponding dose ([2]; pinoxaden 15 g a.i./ha): 41.7%
Control effect (%) of B applied alone in corresponding dose ([2]; pinoxaden 30 g a.i./ha): 71.8%
Control effect (%) of B applied alone in corresponding dose ([3]; B 3.75 g a.i./ha): 7.9%
Control effect (%) of B applied alone in corresponding dose ([3]; B 7.5 g a.i./ha): 18.0%
Control effect (%) of B applied alone in corresponding dose ([3]; B 15 g a.i./ha): 43.5%
Control effect (%) of B applied alone in corresponding dose ([3]; B 30 g a.i./ha): 72.6%

O=C(O)c1c(Cl)ccc2cc(Cl)cnc12 [quinclorac]
Control effect (%) of B applied alone in corresponding dose ([1]; B alone 30 g a.i./ha): 11.7%
Control effect (%) of B applied alone in corresponding dose ([1]; B alone 60 g a.i./ha): 28.8%
Control effect (%) of B applied alone in corresponding dose ([1]; B alone 120 g a.i./ha): 53.7%
Control effect (%) of B applied alone in corresponding dose ([1]; B alone 240 g a.i./ha): 76.2%

O=C(O)COc1nc(Cl)c(Cl)cc1Cl [triclopyr]
Control effect (%) of B applied alone in corresponding dose ([1]; B alone 300 g a.i./ha): 78.4%
